Read-outs that look alike come from different tables or passages of the source.
Experiments:
[1] = Accelerated storage test of aldehyde mixture with additive, 10 ppm Cu (Example 2); settings: after 55° C. 14 days without cap; for C16:Acid: before test 1.05, blank 17.72; for Z9-16:Ald: before test 5.09, blank 3.05; for 16:Ald: before test 8.41, blank 6.60; for Z11-16Ald: before test 75.31, blank 54.31
Protocol: The term “accelerated storage test” as used herein refers to a well known protocol for investigating the stability of a particular composition. The protocol is described in for example the memorandum dated 16 Nov. 2012 from The United States Environmental Protection Agency Washington, D.C. 20460 with the subject title “Accelerated Storage Stability and Corrosion Characteristics Study Protocol”. The protocol evaluates product stability at 54° C.±2° C. for 14 days.

[2] = Accelerated storage test of aldehyde mixture with additive, 40 ppm Cu (Example 1); assay type: physicochemical; settings: after 55° C. 14 days without cap; for Z9-16:Ald: before test 4.3, blank 3.066023; for C16:Acid: before test 6.7, blank 18.84135; for 16:Ald: before test 7.5, blank 6.659339; for Z11-16Ald: before test 69.4, blank 54.83784, in % (unit assumed)
Protocol: To a mixture of aldehydes containing; (Z)-9-hexadecenal, (Z)-11-hexadecenal, hexadecanal, (Z)-11-hexadecen-1-ol, (Z)-11-hexadecenoic acid and 40 ppm Cu was added an additive as indicated in table 1 below. The mixture was thoroughly mixed and heated without cap in an oven at 55° C. for 14 days as an accelerated storage test.

[3] = Storage test of aldehyde mixture containing 4-hydroxy-TEMPO and 10 ppm Copper with additive (Example 3); settings: for Z11-16:OH / Z10-15:Ald / 16:Acid / Z9-16:Ald / 16:Ald / Z11-16:Ald: after 55 C 14 days without cap; for Z11-16:OH / Z10-15:Ald / 16:Acid / Z9-16:Ald / 16:Ald / Z11-16:Ald / suppressing acid formation and degradation of the aldehydes: 10 ppm Copper; for Z11-16:OH: before test 2.16, blank 1.44; for Z10-15:Ald: before test 2.61, blank 2.72; for 16:Acid: before test 3.01, blank 7.94; for Z9-16:Ald: before test 5.33, blank 3.91; for 16:Ald: before test 8.16, blank 6.48; for Z11-16:Ald: before test 74.98, blank 58.18; for suppressing acid formation and degradation of the aldehydes: 55 C 14 days
Protocol: To a mixture of aldehydes containing; 4-hydroxy-TEMPO (4-hydroxy-2,2,6,6-tetramethylpiperidin-1-oxyl), (Z)-10-pentenenal, (Z)-9-hexadecenal, (Z)-11-hexadecenal, hexadecanal, (Z)-11-hexadecen-1-ol (Z)-11-hexadecenoic acid and 10 ppm Copper in the composition listed in table 3 below was added up to 1% of an additive in table below. The mixture was thoroughly mixed and heated without cap in an oven at 55 C for 14 days.

[4] = Storage test of aldehyde mixture containing 4-hydroxy-TEMPO with additive (Example 4); assay type: physicochemical; settings: for Heptane / Z11-16:OH / 16:Acid / OH tempo / Z9-16:Ald / 15-1:Ald / 16:Ald / Z11-16:Ald: after 55° C. 14 days without cap; for Heptane: before test 0.04, without additive 0.04; for Z11-16:OH: before test 0.27, without additive 0.06; for 16:Acid: before test 1.05, without additive 6.14; for OH tempo: before test 1.19, without additive 1.11; for Z9-16:Ald: before test 5.09, without additive 3.71; for 15-1:Ald: before test 7.27, without additive 5.83; for 16:Ald: before test 8.41, without additive 6.64; for Z11-16:Ald: before test 75.31, without additive 57.21, in % (unit assumed)
Protocol: To a mixture of aldehydes containing; 4-hydroxy-TEMPO (4-hydroxy-2,2,6,6-tetramethylpiperidin-1-oxyl), (Z)-10-pentenenal, (Z)-9-hexadecenal, (Z)-11-hexadecenal, hexadecanal, (Z)-11-hexadecen-1-ol and (Z)-11-hexadecenoic acid in the composition listed in table 4 below was added up to 1% of an additive in table below. The mixture was thoroughly mixed and heated without cap in an oven at 55° C. for 14 days.

Row | C16:Acid [1] | Z9-16:Ald [1] | 16:Ald [1] | Z11-16Ald [1] | Z9-16:Ald [2] | C16:Acid [2] | 16:Ald [2] | Z11-16Ald [2] | Z11-16:OH [3] | Z10-15:Ald [3] | 16:Acid [3] | Z9-16:Ald [3] | 16:Ald [3] | Z11-16:Ald [3] | Heptane [4] | Z11-16:OH [4] | 16:Acid [4] | OH tempo [4] | Z9-16:Ald [4] | 15-1:Ald [4] | Compound | further results
1 | 17.66 | 3.07 | 6.57 | 54.01 | 3.085 | 19.1541 | 6.634 | 54.35 | – | – | – | – | – | – | – | – | – | – | – | – | Cc1ccc(O)c(-n2nc3ccccc3n2)c1 [Tinuvin P] | –
2 | 16.99 | 3.12 | 6.62 | 54.84 | 3.135 | 18.22 | 6.749 | 55.81 | – | – | – | – | – | – | – | – | – | – | – | – | CC1(C)CC(OC(=O)CCCCCCCCC(=O)OC2CC(C)(C)NC(C)(C)C2)CC(C)(C)N1 [Tinuvin 770] | –
3 | 16.74 | 0.00 | 6.75 | 55.52 | 3.115 | 18.83 | 6.736 | 54.86 | – | – | – | – | – | – | – | – | – | – | – | – | OCC(O)CO [Glycerol] | –
4 | 15.21 | 3.20 | 6.81 | 56.62 | 3.325 | 17.1 | 6.835 | 52.4909 | – | – | – | – | – | – | – | – | – | – | – | – | Cc1cc(-n2nc3ccc(Cl)cc3n2)c(O)c(C(C)(C)C)c1 [Sumisorb] | –
5 | 11.32 | 3.83 | 3.81 | 67.75 | 3.464 | 14.55 | 7.376 | 61.55 | – | – | – | – | – | – | – | – | – | – | – | – | CCCOC(=O)c1cc(O)c(O)c(O)c1 [Propyl Gallate] | –
6 | 12.93 | 3.18 | 6.65 | 55.97 | 2.927 | 16.74 | 6.224 | 51.62 | – | – | – | – | – | – | – | – | – | – | – | – | [Na+].[OH-] [Sodium Hydroxide] | –
7 | 10.34 | 3.67 | 7.75 | 65.65 | 3.367 | 16.52 | 6.913 | 53.69 | – | – | – | – | – | – | – | – | – | – | – | – | CC(C)(C)c1cc(O)ccc1O [TBHQ] | –
8 | 16.74 | 3.10 | 6.68 | 55.41 | 3.061 | 19.17 | 6.722 | 55.24 | – | – | – | – | – | – | – | – | – | – | – | – | C[S+](C)[O-] [DMSO] | –
9 | 17.70 | 3.09 | 6.65 | 54.82 | 3.379 | 17.008 | 6.914 | 54.67 | – | – | – | – | – | – | – | – | – | – | – | – | Cc1c(C)c2c(c(C)c1O)CCC(C)(CCCC(C)CCCC(C)CCCC(C)C)O2 (racemic) [Tocopherol] | –
10 | 12.54 | 3.23 | 6.84 | 57.13 | 2.255 | 12.35 | 4.755 | 40.03 | – | – | – | – | – | – | – | – | – | – | – | – | C1COCCN1 [Morpholine] | –

More lines, now with the values behind:

Row | Compound | C16:Acid [1] | Z9-16:Ald [1] | 16:Ald [1] | Z11-16Ald [1] | Z9-16:Ald [2] | C16:Acid [2] | 16:Ald [2] | Z11-16Ald [2] | Z11-16:OH [3] | Z10-15:Ald [3] | 16:Acid [3] | Z9-16:Ald [3] | 16:Ald [3] | Z11-16:Ald [3] | Heptane [4] | Z11-16:OH [4] | 16:Acid [4] | OH tempo [4] | Z9-16:Ald [4] | 15-1:Ald [4] | further results
11 | Cc1cc(C(C)(C)C)c(O)c(C(C)(C)C)c1 [BHT] | 10.43 | 3.73 | 7.73 | 65.80 | 3.425 | 16.05 | 6.958 | 54.06 | – | – | – | – | – | – | – | – | – | – | – | – | –
12 | CC1(C)CC(O)CC(C)(C)N1[O] [Additive 4-OH-TEMPO, 4-hydroxy-2,2,6,6-tetramethylpiperidin-1-oxyl] | – | – | – | – | – | – | – | – | 1.88 | 2.69 | 4.18 | 4.72 | 7.51 | 68.82 | 0.04 | 0.19 | 3.00 | 1.53 | 4.52 | 6.54 | 16:Ald [4]: 7.60; Z11-16:Ald [4]: 67.41
13 | Sc1nc2ccccc2[nH]1 [2-mercapto-Benzimidazole] | – | – | – | – | – | – | – | – | 1.87 | 3.10 | 3.80 | 4.70 | 7.53 | 69.33 | 0.04 | 0.00 | 4.23 | 1.05 | 3.43 | 6.16 | OH tempo [3]: 1.11; suppressing acid formation and degradation of the aldehydes [3]: particularly efficient at suppressing acid formation and degradation of the aldehydes; 16:Ald [4]: 6.97; Z11-16:Ald [4]: 59.82
14 | O=S1(=O)CCCC1 [Sulfolane] | 16.92 | 3.08 | 6.60 | 54.29 | 3.077 | 18.34 | 6.666 | 54.91 | – | – | – | – | – | – | – | – | – | – | – | – | –
15 | CC1(C)CC(=O)CC(C)(C)N1 [2,2,6,6-tetramethyl-4-piperidone] | – | – | – | – | – | – | – | – | 1.75 | 3.14 | 5.70 | 3.83 | 6.41 | 59.27 | 0.04 | 0.15 | 4.02 | 1.11 | 4.03 | 6.27 | 16:Ald [4]: 6.95; Z11-16:Ald [4]: 61.06
16 | Cc1nnc(S)s1 [5-Methyl-1,3,4-thiadiazole-2-thiol] | – | – | – | – | – | – | – | – | 2.12 | 2.74 | 3.02 | 4.69 | 7.81 | 71.97 | 0.04 | 0.29 | 1.38 | 1.14 | 4.38 | 6.71 | suppressing acid formation and/or degradation of the aldehydes [4]: particularly efficient at suppressing acid formation and/or degradation of the aldehydes; 16:Ald [4]: 8.04; Z11-16:Ald [4]: 71.38
17 | Zinc Pyrithione | – | – | – | – | – | – | – | – | 1.53 | 3.04 | 5.28 | 4.44 | 7.01 | 64.80 | 0.04 | 0.13 | 2.29 | 1.17 | 4.57 | 6.78 | suppressing acid formation and degradation of the aldehydes [3]: particularly efficient at suppressing acid formation and degradation of the aldehydes; suppressing acid formation and/or degradation of the aldehydes ([4]; 55° C. 14 days): particularly efficient at suppressing acid formation and/or degradation of the aldehydes; 16:Ald [4]: 7.72; Z11-16:Ald [4]: 65.87
18 | Nc1nnc(S)s1 [5-Amino-1,3,4-Thiadiazole-2-thiol] | – | – | – | – | – | – | – | – | 2.11 | 2.95 | 3.03 | 4.92 | 7.81 | 72.73 | 0.04 | 0.12 | 1.87 | 1.12 | 4.46 | 6.82 | suppressing acid formation and/or degradation of the aldehydes [4]: particularly efficient at suppressing acid formation and/or degradation of the aldehydes; 16:Ald [4]: 7.78; Z11-16:Ald [4]: 69.41
19 | Cn1ccnc1S [2-mercapto-1-methylimidazole] | – | – | – | – | – | – | – | – | 1.92 | 2.88 | 2.93 | 4.83 | 7.82 | 72.34 | 0.04 | 0.28 | 1.12 | 1.12 | 4.88 | 6.65 | suppressing acid formation and/or degradation of the aldehydes [4]: particularly efficient at suppressing acid formation and/or degradation of the aldehydes; 16:Ald [4]: 8.22; Z11-16:Ald [4]: 73.41
20 | COc1ccc(O)c(C(C)(C)C)c1 [BHA] | 12.64 | 3.46 | 7.33 | 61.54 | 3.364 | 15.55 | 7.158 | 59.48 | – | – | – | – | – | – | – | – | – | – | – | – | –
21 | CN(C)CCO [Dimethylethanolamine] | 17.70 | 3.09 | 6.65 | 54.82 | 0 | 11.55 | 1.242 | 8.128 | – | – | – | – | – | – | – | – | – | – | – | – | –

— patent US20260256136A1, “STABILIZATION OF ALDEHYDES AND/OR AN ALCOHOLS” (priority 2022, published 2026)
